From US5691373A, “Nonpeptide endothelin antagonists I” (Warner-Lambert Company, priority 1995, dated 1997)
Like-named read-outs stand apart in the source and are kept apart here.

Experiments:
human ETB receptor = molecular target: T1, human ETB receptor (Homo sapiens, UniProt P24530); test: ERBA-B: [125I]-ET-1 binding, recombinant human ETB receptor expressed in CHO-K1 cells; conditions: human cloned ETB receptor, read-out: ERBA-B IC50, human cloned receptor data
T1 construct: expressed in transfected cells; host or cells: CHO-K1 cells, pRc-CMW (so in the source) expression vector, electroporation; membranes used
T1 sequence (P24530 27-442): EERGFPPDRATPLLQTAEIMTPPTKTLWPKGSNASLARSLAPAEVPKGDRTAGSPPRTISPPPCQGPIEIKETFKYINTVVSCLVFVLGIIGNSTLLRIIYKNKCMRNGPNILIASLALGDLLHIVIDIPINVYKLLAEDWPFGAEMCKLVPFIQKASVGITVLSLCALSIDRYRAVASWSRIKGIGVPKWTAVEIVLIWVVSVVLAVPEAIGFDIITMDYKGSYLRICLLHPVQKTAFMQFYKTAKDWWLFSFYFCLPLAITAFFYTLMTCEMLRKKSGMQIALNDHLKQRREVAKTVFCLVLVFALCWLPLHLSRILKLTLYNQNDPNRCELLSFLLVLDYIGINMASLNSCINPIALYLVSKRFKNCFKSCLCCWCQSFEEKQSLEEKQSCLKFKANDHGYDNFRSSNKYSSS
Experimental: Count filters for radioactivity in gamma counter.
The above process has also been modified by using human recombinant CHO-K1 cells.
The tissue used for human ETB was recombinant human ETB receptor expressed in CHO-K1 cells (chinese hamster ovary cells). The gene for human ETB receptor was cloned and inserted into the pRc-CMW expression vector, then transfected into CHO-K1 cells by electroporation. For binding assays, membranes (0.7 mg protein) of CHO-K1 cells expressing recombinant human ETB receptor were used.
^d Human cloned receptor data

ETA = molecular target: T2, ETA (Oryctolagus cuniculus, UniProt A5A8K3)
T2 sequence (A5A8K3 21-427): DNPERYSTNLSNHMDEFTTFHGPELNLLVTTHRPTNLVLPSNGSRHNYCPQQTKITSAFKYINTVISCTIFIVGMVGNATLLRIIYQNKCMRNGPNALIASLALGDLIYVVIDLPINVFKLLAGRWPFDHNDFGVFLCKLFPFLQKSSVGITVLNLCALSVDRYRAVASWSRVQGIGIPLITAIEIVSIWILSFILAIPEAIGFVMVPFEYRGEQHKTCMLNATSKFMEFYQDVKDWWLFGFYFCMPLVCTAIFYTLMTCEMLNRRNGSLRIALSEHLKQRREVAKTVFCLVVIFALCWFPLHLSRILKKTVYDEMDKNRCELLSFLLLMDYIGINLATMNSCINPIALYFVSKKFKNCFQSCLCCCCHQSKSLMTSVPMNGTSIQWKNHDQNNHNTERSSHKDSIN

[1] = ERBA-A IC50, [125I]-ET-1, rabbit renal artery vascular smooth muscle cells
[2] = read-out: ERBA-A IC50, [125I]-ET-1, rabbit renal artery vascular smooth muscle cells

CCC1=C(c2ccc3c(c2)OCO3)C(=O)OC1(O)c1ccc(OC)cc1 (stereo not drawn) [Example 91, 3-Benzo[1,3]dioxol-5-yl-4-ethyl-5-hydroxy-5-(4-methoxyphenyl)-5H-furan-2-on]
IC50 (human ETB receptor): 15000 nM
IC50 (ETA; [1]): 530 nM

COc1ccc(C2(O)OC(=O)C(c3ccc(OC)cc3OC)=C2Cc2ccccc2)cc1 (stereo not drawn) [Example 113, 4-Benzyl-3-(2,4-dimethoxyphenyl)-5-hydroxy-5-(4-mehoxyphenyl)-5H-furan-2-one]
IC50 (human ETB receptor): 25000 nM
IC50 (ETA; [1]): 300 nM

COc1ccc(CC2=C(c3ccc(Cl)c(Cl)c3)C(=O)OC2(O)c2ccc(OC)cc2)cc1 (stereo not drawn) [Example 117, 3-(3,4-Dichlorophenyl)-5-hydroxy-4-(4-methoxybenzyl)-5-(4-methoxyphenyl)-5H -furan-2-one]
IC50 (human ETB receptor): 2700 nM
IC50 (ETA; [1]): 310 nM

COc1ccc(C2(O)OC(=O)C(c3cc(OC)cc(OC)c3)=C2Cc2cccc(F)c2)cc1 (stereo not drawn) [Example 129, 3-(3,5-Dimethoxphenyl)-4-(3-fluorobenzyl)-5-hydroxy-5-(4-methoxyphenyl)-5H-furan-2-one]
IC50 (human ETB receptor): 2300 nM
IC50 (ETA; [1]): 72 nM

COc1ccc(C2(O)OC(=O)C(c3cc(OC)cc(OC)c3)=C2Cc2cc(Cl)cc(Cl)c2)cc1 (stereo not drawn) [Example 132, 4-(3,5-Dichlorobenzyl)-3-(3,5-dimethoxyphenyl)-5-hydroxy-5-(4-methoxyphenyl)-5H-furan-2-one]
IC50 (human ETB receptor): 2750 nM
IC50 (ETA; [1]): 70 nM

COc1ccc(C2(O)OC(=O)C(c3ccc4c(c3)OCO4)=C2Cc2cncc3ccccc23)cc1 (stereo not drawn) [Example 161, 3-Benzo[1,3]dioxol-5-yl-5-hydroxy-4-isoquinolin-4-ylmethyl-5-(4-methoxyphenyl)-5H-furan-2-one]
IC50 (human ETB receptor): 3200 nM
IC50 (ETA; [1]): 40 nM

COc1ccc(C2(O)OC(=O)C(c3ccc4c(c3)OCO4)=C2Cc2ccc(-c3ccccc3)cc2)cc1 (stereo not drawn) [Example 162, 3-Benzo[1,3]dioxol-5-yl-4-biphenyl-4-ylmethyl-5-hydroxy-5-(4-methoxyphenyl) -5H-furan-2-one]
IC50 (human ETB receptor): 1900 nM
IC50 (ETA; [1]): 390 nM

COc1ccc(C(=O)/C(Cc2ccc(OC)c(C)c2)=C(\C(=O)O)c2ccc3c(c2)OCO3)cc1 [Example 172, 2-Butenoic acid, 2-(1,3-benzodioxol-5-yl)-3-[(4-methoxy-3-methylphenyl)methyl]-4-(4-methoxyphenyl)-4-oxo-, (Z)-, ion(1-) compd. with 2-hydroxy-N,N,N-trimethylethanaminium (1:1)]
IC50 (human ETB receptor): > 2500 nM
IC50 (ETA; [2]): 7200 nM

CC(C)Oc1ccc(C2(O)OC(=O)C(c3ccc4c(c3)OCO4)=C2Cc2ccccc2)cc1 (stereo not drawn) [Example 204, 3-Benzo[1,3]dioxol-5-yl-4-benzyl-5-hydroxy-5-(4-isopropoxyphenyl)-5H-furan-2-one]
IC50 (human ETB receptor): 10000 nM
IC50 (ETA; [1]): 1050 nM

O=C1OC(O)(c2ccc(OCc3ccccc3)cc2)C(Cc2ccccc2)=C1c1ccc2c(c1)OCO2 (stereo not drawn) [Example 208, 3-Benzo[1,3]dioxol-5-yl-4-benzyl-5-(4-benzyloxyphenyl)-5-hydroxy-5H-furan-2-one]
IC50 (human ETB receptor): 5400 nM
IC50 (ETA; [1]): 1200 nM

O=C1OC(O)(c2cccc(Cl)c2)C(Cc2ccccc2)=C1c1ccc2c(c1)OCO2 (stereo not drawn) [Example 235, 3-Benzo[1,3]dioxol-5-yl-4-benzyl-5-(3-chlorophenyl)-5-hydroxy-5H-furan-2-one]
IC50 (human ETB receptor): > 2500 nM
IC50 (ETA; [1]): 670 nM

O=C1OC(O)(c2ccc3c(c2)OCO3)C(Cc2ccccc2)=C1c1ccc2c(c1)OCO2 (stereo not drawn) [Example 245, 3,5-Bis-benzo[1,3]dioxol-5-yl-4-benzyl-5-hydroxy-5H-furan-2-one]
IC50 (human ETB receptor): 2000 nM
IC50 (ETA; [1]): 110 nM

COc1ccc(C2(O)OC(=O)C(c3ccc4c(c3)OCO4)=C2Cc2cc(C)c(OC)cc2C)cc1 (stereo not drawn) [Example 251, 3-Benzo[1,3]dioxol-5-yl-5-hydroxy-4-(4-methoxy-2,5-dimethylbenzyl)-5-(4-methoxyphenyl)-5H-furan-2-one]
IC50 (human ETB receptor): > 2500 nM
IC50 (ETA; [1]): 6 nM

C=CCOc1cc(CC2=C(c3ccc4c(c3)OCO4)C(=O)OC2(O)c2ccc(OC)cc2OC)ccc1OC (stereo not drawn) [Example 255, 4-(3-Allyloxy-4-methoxybenzyl)-3-benzo[1,3]dioxol-5-yl-5-(2,4-dimethoxyphenyl)-5-hydroxy-5H-furan-2-one]
IC50 (human ETB receptor): 1400 nM
IC50 (ETA; [1]): 8.3 nM

COc1ccc(C2(O)OC(=O)C(c3ccc(OC)c(OC)c3)=C2Cc2ccccc2)cc1 (stereo not drawn) [Example 261, 4-Benzyl-3-(3,4-dimethoxyphenyl)-5-hydroxy-5-(4-methoxyphenyl)-5H-furan-2-one]
IC50 (human ETB receptor): 3900 nM
IC50 (ETA; [1]): 160 nM

COc1ccc(C2(O)OC(=O)C(c3cc(OC)cc(OC)c3)=C2Cc2cccc(C(=O)O)c2)cc1 (stereo not drawn) [Example 267, 3-[4-(3,5-Dimethoxyphenyl)-2-hydroxy-2-(4-methoxyphenyl)-5-oxo-2,5-dihydrof uran-3-ylmethyl]benzoic acid]
IC50 (human ETB receptor): > 2500 nM
IC50 (ETA; [1]): 710 nM

COc1ccc(C2(O)OC(=O)C(c3cc(OC)cc(OC)c3)=C2Cc2ccc(OC)c(C)c2)cc1 (stereo not drawn) [Example 272]
IC50 (human ETB receptor): 760 nM
IC50 (ETA; [1]): 6.4 nM

COc1ccc(C2(O)OC(=O)C(c3cc(OC)cc(OC)c3)=C2Cc2ccc(Cl)cc2)cc1 (stereo not drawn) [Example 274]
IC50 (human ETB receptor): > 2500 nM
IC50 (ETA; [2]): 140 nM

COC(=O)c1cccc(CC2=C(c3ccc4c(c3)OCO4)C(=O)OC2(O)c2ccc(OC)cc2)c1 (stereo not drawn) [Example 286, Benzoic acid, 3-[[4-(1,3-benzodioxol-5-yl)-2,5-dihydro-2-hydroxy-2-(4-methoxyphenyl)-5-oxo-3-furanyl]methyl]-, methyl ester]
IC50 (human ETB receptor): 6000 nM
IC50 (ETA; [1]): 4.6 nM

COC(=O)Cc1ccc(CC2=C(c3ccc4c(c3)OCO4)C(=O)OC2(O)c2ccc(OC)cc2)cc1 (stereo not drawn) [Example 291, {4-[4-Benzo[1,3]dioxol-5-yl-2-hydroxy-2-(4-methoxyphenyl)-5-oxo-2,5-dihydro-furan-3-ylmethyl]-phenyl}-acetic acid methyl ester]
IC50 (human ETB receptor): 1400 nM
IC50 (ETA; [1]): 40 nM

COc1ccc(C2(O)OC(=O)C(c3ccc4c(c3)OCO4)=C2Cc2ccc(CC(=O)O)cc2)cc1 (stereo not drawn) [Example 293, {4-[4-Benzo[1,3]dioxol-5-yl-2-hydroxyl-2-(4-methoxy-phenyl)-5-oxo-2,5-dihydro-furan-3-ylmethyl]-phenyl}-acetic acid]
IC50 (human ETB receptor): > 2500 nM
IC50 (ETA; [1]): > 2500 nM

COC(=O)Cc1cccc(CC2=C(c3ccc4c(c3)OCO4)C(=O)OC2(O)c2ccc(OC)cc2)c1 (stereo not drawn) [Example 294, {3-[4-Benzo[1,3]dioxol-5-yl-2-hydroxy-2-(4-methoxyphenyl)-5-oxo-2,5-dihydro-furan-3-ylmethyl]-phenyl}-acetic acid methyl ester]
IC50 (human ETB receptor): 780 nM
IC50 (ETA; [1]): 3.4 nM

COc1ccc(C2(O)OC(=O)C(c3ccc4c(c3)OCO4)=C2Cc2cccc(CC(=O)O)c2)cc1 (stereo not drawn) [Example 295, {3-[4-Benzo[1,3]dioxol-5-yl-2-hydroxy-2-(4-methoxyphenyl)-5-oxo-2,5-dihydro-furan-3-ylmethyl]-phenyl}-acetic acid]
IC50 (human ETB receptor): > 2500 nM
IC50 (ETA; [1]): 130 nM

COc1ccc(C2(O)OC(=O)C(c3ccc4c(c3)OCO4)=C2Cc2cc(C)c(OC)c(C)c2)cc1 (stereo not drawn) [Example 296, 3-Benzo[1,3]dioxol-5-yl-5-hydroxy-4-(4-methoxy-3,5-dimethyl-benzyl)-5-(4-methoxy-phenyl)-5-H-furan-2-one]
IC50 (human ETB receptor): 580 nM
IC50 (ETA; [1]): 6 nM

COc1ccc(C2(O)OC(=O)C(c3ccc4c(c3)OCO4)=C2Cc2cc(C)c(OC(C)C)c(C)c2)cc1 (stereo not drawn) [Example 297, 3-Benzo[1,3]dioxol-5-yl-4-(3,5-dimethyl-4-isopropoxybenzyl)-5-hydroxy-5-(4-methoxy-phenyl)-5H-furan-2-one]
IC50 (human ETB receptor): 870 nM
IC50 (ETA; [1]): 64 nM

CCCCCCCCOc1c(C)cc(CC2=C(c3ccc4c(c3)OCO4)C(=O)OC2(O)c2ccc(OC)cc2)cc1C (stereo not drawn) [Example 302, 3-Benzo[1,3]dioxol-5-yl-4-(3,5-dimethyl-4-octyloxybenzyl)-5-hydroxy-5-(4-methoxy-phenyl)-5H-furan-2-one]
IC50 (human ETB receptor): 2000 nM
IC50 (ETA; [1]): 2300 nM

COc1ccc(C2(O)OC(=O)C(c3ccc4c(c3)OCO4)=C2Cc2cc(OC)cc(OC)c2)cc1 (stereo not drawn) [Example 303, 3-Benzo[1,3]dioxol-5-yl-4-(3,5-dimethoxy-benzyl)-5-hydroxy-5-(4-methoxy-phenyl)-5H-furan-2-one]
IC50 (human ETB receptor): 760 nM
IC50 (ETA; [1]): 2.7 nM
